{"source": "patent US4427587A", "about": "“Total synthesis of antitumor antibiotics BBM-2040A and BBM-2040B” (Bristol-Myers Company, priority 1982, dated 1984)", "key": {"[1]": {"test_system": "gram-positive, gram-negative and acid-fast bacteria", "assay": "antibacterial activity / spectrum", "assay_type": "cell-based", "settings": "Streptococcus pyogenes, Micrococcus luteus, Micrococcus flavus and Mycobacterium strains", "method": "(§1) The minimum inhibitory concentration (MIC) of BBM-2040 was determined for a variety of gram-positive, gram-negative and acid-fast bacteria by the serial two-fold agar dilution method. Nutrient agar medium was used for gram-positive and gram-negative organisms and No. 1001 medium (3% glycerol, 0.3% sodium L-glutamate, 0.2% peptone, 0.31% Na2 HPO4, 0.1% KH2 PO4, 0.005% ammonium citrate, 0.001% MgSO4 and 1.5% agar) for acid-fast organisms."}, "[2]": {"test_system": "lymphocytic leukemia P388", "assay": "antitumor activity against lymphocytic leukemia P388 in mice (Table 6)", "assay_type": "in vivo, mice (BDF1 strain)", "settings": "qd 1→9; for antitumor activity in P388 experiment (comparison): ip", "method": "The antitumor activity of BBM-2040A and B was determined in mice (BDF1 strain) against lymphocytic leukemia P388. Each mouse was inoculated intraperitoneally with 10^6 cells of tumor. Graded doses of test compounds were administered to mice intraperitoneally 24 hours after the tumor implantation. The treatments were given once daily for 9 days (qd 1→9 schedule). Neothramycin was comparatively tested as a reference compound.\n*ratio of median survival time of test and control animals\n**circle indicates significant antitumor effect."}, "[3]": {"test_system": "Streptococcus pyogenes PCI 1001", "assay": "MIC, serial two-fold agar dilution method", "assay_type": "cell-based", "settings": "PCI1001; Streptococcus pyogenes PCI 1001; read-out: MIC", "method": "as §1"}, "Mycobacterium phlei D88": {"test_system": "Mycobacterium phlei D88", "assay": "MIC, serial two-fold agar dilution method", "assay_type": "cell-based", "settings": "Mycolicibacterium phlei; Mycobacterium phlei D88; No. 1001 medium; read-out: MIC", "method": "as §1"}, "[4]": {"test_system": "Klebsiella pneumoniae D-11", "assay": "MIC, serial two-fold agar dilution method", "assay_type": "cell-based", "settings": "D11; Klebsiella pneumoniae D-11; read-out: MIC", "method": "as §1"}, "[5]": {"test_system": "Staphylococcus aureus Smith", "assay": "MIC, serial two-fold agar dilution method", "assay_type": "cell-based", "settings": "Staphylococcus aureus Smith; read-out: MIC", "method": "as §1"}, "[6]": {"test_system": "Bacillus subtilis PCI 219", "assay": "MIC, serial two-fold agar dilution method", "assay_type": "cell-based", "settings": "PCI219; Bacillus subtilis PCI 219; read-out: MIC", "method": "as §1"}, "[7]": {"test_system": "Staphylococcus aureus FDA 209P", "assay": "MIC, serial two-fold agar dilution method", "assay_type": "cell-based", "settings": "FDA209P; Staphylococcus aureus FDA 209P; read-out: MIC", "method": "as §1"}, "[8]": {"test_system": "Pseudomonas aeruginosa A9930", "assay": "MIC, serial two-fold agar dilution method", "assay_type": "cell-based", "settings": "read-out: MIC", "method": "as §1"}, "[9]": {"test_system": "Mycobacterium smegmatis 607", "assay": "MIC, serial two-fold agar dilution method", "assay_type": "cell-based", "settings": "Mycolicibacterium smegmatis; Mycobacterium smegmatis 607; No. 1001 medium; read-out: MIC", "method": "as §1"}, "Escherichia coli Juhl": {"test_system": "Escherichia coli Juhl", "assay": "MIC, serial two-fold agar dilution method", "assay_type": "cell-based", "settings": "Escherichia coli Juhl; read-out: MIC", "method": "as §1"}, "Micrococcus flavus D12": {"test_system": "Micrococcus flavus D12", "assay": "MIC, serial two-fold agar dilution method", "assay_type": "cell-based", "settings": "read-out: MIC", "method": "as §1"}, "Proteus vulgaris A9436": {"test_system": "Proteus vulgaris A9436", "assay": "MIC, serial two-fold agar dilution method", "assay_type": "cell-based", "settings": "read-out: MIC", "method": "as §1"}, "[10]": {"test_system": "Streptococcus pyogenes A20201", "assay": "MIC, serial two-fold agar dilution method", "assay_type": "cell-based", "settings": "read-out: MIC", "method": "as §1"}, "Escherichia coli NIHJ": {"test_system": "Escherichia coli NIHJ", "assay": "MIC, serial two-fold agar dilution method", "assay_type": "cell-based", "settings": "Escherichia coli NIHJ; read-out: MIC", "method": "as §1"}, "lymphatic leukemia P388": {"test_system": "lymphatic leukemia P388", "assay": "antitumor activity against P388 leukemia in mice, second experiment (Table 7)", "assay_type": "in vivo, male BDF1 mice", "settings": "QD 1→9; for Effect MST % T/C: ≥ 125 significant", "method": "In this experiment lymphatic leukemia P388 was implanted intraperitoneally into male BDF1 mice at an inoculum size of 10^6 cells per mouse. Test compounds were dissolved in 0.9% saline containing 10% dimethylsulfoxide. Graded doses of test compounds were administered to mice intraperitoneally 24 hours after the tumor implantation, and the treatment was continued once daily for 9 days.\nTumor inoculum: 10^6 ascites cells implanted i.p.\nTreatment: QD 1→9, i.p.\nEvaluation: MST = median survival time\nEffect: % T/C = (MST treated/MST control) × 100\nCriteria: % T/C ≥ 125 considered as significant antitumor activity"}, "[11]": {"settings": "benzene, chloroform and n-hexane"}, "[12]": {"settings": "ethyl acetate, acetone and water"}, "[13]": {"settings": "methanol ethanol, n-butanol and pyridine"}}}
{"smiles": "COc1cc2c(cc1O)N=C[C@@H]1C[C@H](O)CN1C2=O", "note": "[BBM-2040B]", "values": [{"measurement": "antibacterial activity", "setting": "[1]", "value": "weak antibacterial activity"}, {"measurement": "T/C (%) in MST", "setting": "[2]; 0.1 mg/kg/day ip", "value": 104, "unit": "%"}, {"measurement": "T/C (%) in MST", "setting": "[2]; 0.3 mg/kg/day ip", "value": 96, "unit": "%"}, {"measurement": "T/C (%) in MST", "setting": "[2]; 1 mg/kg/day ip", "value": 112, "unit": "%"}, {"measurement": "antitumor activity in P388 experiment (comparison)", "setting": "[2]", "value": "somewhat less active than BBM-2040A"}, {"measurement": "solubility", "setting": "solubility; [11]", "value": "practically insoluble"}, {"measurement": "solubility", "setting": "solubility; [12]", "value": "slightly soluble"}, {"measurement": "solubility", "setting": "solubility; [13]", "value": "readily soluble"}, {"measurement": "MIC", "setting": "[3]", "value": 100, "unit": "µg/mL"}, {"measurement": "MIC", "setting": "Mycobacterium phlei D88", "value": 100, "unit": "µg/mL"}, {"measurement": "MIC", "setting": "[4]", "value": "> 100", "unit": "µg/mL"}, {"measurement": "MIC", "setting": "[5]", "value": "> 100", "unit": "µg/mL"}, {"measurement": "MIC", "setting": "[6]", "value": "> 100", "unit": "µg/mL"}, {"measurement": "MIC", "setting": "[7]", "value": "> 100", "unit": "µg/mL"}, {"measurement": "MIC", "setting": "[8]", "value": "> 100", "unit": "µg/mL"}, {"measurement": "MIC", "setting": "[9]", "value": 100, "unit": "µg/mL"}, {"measurement": "MIC", "setting": "Escherichia coli Juhl", "value": "> 100", "unit": "µg/mL"}, {"measurement": "MIC", "setting": "Micrococcus flavus D12", "value": 50, "unit": "µg/mL"}, {"measurement": "MIC", "setting": "Proteus vulgaris A9436", "value": "> 100", "unit": "µg/mL"}, {"measurement": "MIC", "setting": "[10]", "value": 50, "unit": "µg/mL"}, {"measurement": "MIC", "setting": "Escherichia coli NIHJ", "value": "> 100", "unit": "µg/mL"}]}
{"smiles": "COc1cc2c(cc1O)N[C@H](OC)[C@@H]1C[C@H](O)CN1C2=O", "note": "[BBM-2040A, 2(S),11(R),11a(S)-1,2,3,10,11,11a-Hexahydro-2,8-dihydroxy-7,11-dimethoxy-5H-pyrrolo-[2,1-c][1,4]benzodiazepin-5-one]", "values": [{"measurement": "antibacterial activity", "setting": "[1]", "value": "weak antibacterial activity"}, {"measurement": "T/C (%) in MST", "setting": "[2]; 0.1 mg/kg/day ip", "value": 96, "unit": "%"}, {"measurement": "T/C (%) in MST", "setting": "[2]; 0.3 mg/kg/day ip", "value": 104, "unit": "%"}, {"measurement": "antitumor activity in P388 experiment (comparison)", "setting": "[2]", "value": "similarly active"}, {"measurement": "solubility", "setting": "solubility; [11]", "value": "practically insoluble"}, {"measurement": "solubility", "setting": "solubility; [12]", "value": "slightly soluble"}, {"measurement": "solubility", "setting": "solubility; [13]", "value": "readily soluble"}, {"measurement": "MIC", "setting": "[3]", "value": 50, "unit": "µg/mL"}, {"measurement": "MIC", "setting": "Mycobacterium phlei D88", "value": 100, "unit": "µg/mL"}, {"measurement": "MIC", "setting": "[4]", "value": "> 100", "unit": "µg/mL"}, {"measurement": "MIC", "setting": "[5]", "value": "> 100", "unit": "µg/mL"}, {"measurement": "MIC", "setting": "[6]", "value": "> 100", "unit": "µg/mL"}, {"measurement": "MIC", "setting": "[7]", "value": "> 100", "unit": "µg/mL"}, {"measurement": "MIC", "setting": "[8]", "value": "> 100", "unit": "µg/mL"}, {"measurement": "MIC", "setting": "[9]", "value": 100, "unit": "µg/mL"}, {"measurement": "MIC", "setting": "Escherichia coli Juhl", "value": "> 100", "unit": "µg/mL"}, {"measurement": "MIC", "setting": "Micrococcus flavus D12", "value": 50, "unit": "µg/mL"}, {"measurement": "MIC", "setting": "Proteus vulgaris A9436", "value": "> 100", "unit": "µg/mL"}, {"measurement": "MIC", "setting": "[10]", "value": 50, "unit": "µg/mL"}, {"measurement": "MIC", "setting": "Escherichia coli NIHJ", "value": "> 100", "unit": "µg/mL"}, {"measurement": "Average weight change", "setting": "lymphatic leukemia P388; 0.1 mg/kg/day i.p.", "value": "+1.5 g"}, {"measurement": "MST", "setting": "lymphatic leukemia P388; 0.1 mg/kg/day i.p.", "value": 12.0, "unit": "days"}, {"measurement": "Effect MST % T/C", "setting": "lymphatic leukemia P388; 0.1 mg/kg/day i.p.", "value": 100, "unit": "%"}, {"measurement": "Average weight change", "setting": "lymphatic leukemia P388; 0.3 mg/kg/day i.p.", "value": "+1.3 g"}, {"measurement": "MST", "setting": "lymphatic leukemia P388; 0.3 mg/kg/day i.p.", "value": 14.0, "unit": "days"}, {"measurement": "Effect MST % T/C", "setting": "lymphatic leukemia P388; 0.3 mg/kg/day i.p.", "value": 117, "unit": "%"}, {"measurement": "MST", "setting": "lymphatic leukemia P388; 1 mg/kg/day i.p.", "value": 16.0, "unit": "days"}, {"measurement": "Effect MST % T/C", "setting": "lymphatic leukemia P388; 1 mg/kg/day i.p.", "value": 133, "unit": "%"}, {"measurement": "Average weight change", "setting": "lymphatic leukemia P388; 3 mg/kg/day i.p.", "value": "+0.5 g"}, {"measurement": "MST", "setting": "lymphatic leukemia P388; 3 mg/kg/day i.p.", "value": 17.0, "unit": "days"}, {"measurement": "Survivors Day 5", "setting": "lymphatic leukemia P388; 3 mg/kg/day i.p.", "value": "6/6"}, {"measurement": "Survivors Day 22", "setting": "lymphatic leukemia P388; 3 mg/kg/day i.p.", "value": "0/6"}, {"measurement": "Effect MST % T/C", "setting": "lymphatic leukemia P388; 3 mg/kg/day i.p.", "value": 142, "unit": "%"}, {"measurement": "Average weight change", "setting": "lymphatic leukemia P388; 10 mg/kg/day i.p.", "value": -2.2, "unit": "g"}, {"measurement": "MST", "setting": "lymphatic leukemia P388; 10 mg/kg/day i.p.", "value": 19.5, "unit": "days"}, {"measurement": "Survivors Day 5", "setting": "lymphatic leukemia P388; 10 mg/kg/day i.p.", "value": "6/6"}, {"measurement": "Survivors Day 22", "setting": "lymphatic leukemia P388; 10 mg/kg/day i.p.", "value": "1/6"}, {"measurement": "Effect MST % T/C", "setting": "lymphatic leukemia P388; 10 mg/kg/day i.p.", "value": 163, "unit": "%"}, {"measurement": "antitumor activity in second P388 experiment (in words)", "setting": "lymphatic leukemia P388; i.p., epimer: 1 mg/kg/day, the highest dose tested", "value": "similarly active"}]}
